IC50 data for 33 compounds are collected here from patent US20100311714A1, “1H-IMIDAZO[4,5-c]QUINOLINONE COMPOUNDS” (priority 2009, published 2010).

pIC50: −log10 of the molar value.

In this assay the test system is PKB Ser473 phosphorylation in Rat1-myr-HA-p110 delta cells. As to the kind of experiment: Reverse protein array, PKB Ser473 phosphorylation in Rat1-myr-HA-p110 delta cells. The class given is cell-based. The settings on record: Rattus norvegicus, 0.5 h, 30 minutes compound incubation, read-out: p-PKB/IC50_delta.
For the compound `COc1ncccc1-n1c(=O)n(C)c2cnc3ccc(-c4cnc5[nH]ccc5c4)cc3c21` [Example 1.2, 1-(2-Methoxy-pyridin-3-yl)-3-methyl-8-(1H-pyrrolo[2,3-b]pyridin-5-yl)-1,3-dihydro-imidazo[4,5-c]quinolin-2-one], the pIC50 was 8.10.
As to `COc1ncccc1-n1c(=O)n(C)c2cnc3ccc(-c4ccc(C(N)=O)cc4)cc3c21` [Example 1.6, 4-[1-(2-Methoxy-pyridin-3-yl)-3-methyl-2-oxo-2,3-dihydro-1H-imidazo[4,5-c]quinolin-8-yl]-benzamide], the pIC50 is 7.53.
Next, `Cc1ncccc1-n1c(=O)n(C)c2cnc3ccc(-c4ccc(C(N)=O)cc4)cc3c21` [Example 2.3, 4-[3-Methyl-1-(2-methyl-pyridin-3-yl)-2-oxo-2,3-dihydro-1H-imidazo[4,5-c]quinolin-8-yl]-benzamide]: 7.63; `CCOc1ncc(-c2ccc3ncc4c(c3c2)n(-c2cccnc2C)c(=O)n4C)cn1` [Example 2.5, 8-(2-Ethoxy-pyrimidin-5-yl)-3-methyl-1-(2-methyl-pyridin-3-yl)-1,3-dihydro-imidazo[4,5-c]quinolin-2-one]: 6.69; `Cc1ncccc1-n1c(=O)n(C)c2cnc3ccc(-c4ccc(CO)nc4)cc3c21` [Example 2.6, 8-(6-Hydroxymethyl-pyridin-3-yl)-3-methyl-1-(2-methyl-pyridin-3-yl)-1,3-dihydro-imidazo[4,5-c]quinolin-2-one]: 7.13.
`Cc1ncccc1-n1c(=O)n(C)c2cnc3ccc(-c4ccc(N)nc4)cc3c21` [Example 2.7, 8-(6-Amino-pyridin-3-yl)-3-methyl-1-(2-methyl-pyridin-3-yl)-1,3-dihydro-imidazo[4,5-c]quinolin-2-one]: the pIC50 is 7.92.
As for `COc1ccc(-c2ccc3ncc4c(c3c2)n(-c2cccnc2C)c(=O)n4C)cc1OC` [Example 2.9, 8-(3,4-Dimethoxy-phenyl)-3-methyl-1-(2-methyl-pyridin-3-yl)-1,3-dihydro-imidazo[4,5-c]quinolin-2-one], the pIC50 was 7.47.
The same measure for `Cc1ncccc1-n1c(=O)n(C)c2cnc3ccc(-c4ccc(OCCCN(C)C)nc4)cc3c21` [Example 2.10, 8-[6-(3-Dimethylamino-propoxy)-pyridin-3-yl]-3-methyl-1-(2-methyl-pyridin-3-yl)-1,3-dihydro-imidazo[4,5-c]quinolin-2-one]: 6.64; for `Cc1ncccc1-n1c(=O)n(C)c2cnc3ccc(-c4cnc(N)c(C(F)(F)F)c4)cc3c21` [Example 2.11, 8-(6-Amino-5-trifluoromethyl-pyridin-3-yl)-3-methyl-1-(2-methyl-pyridin-3-yl)-1,3-dihydro-imidazo[4,5-c]quinolin-2-one]: 7.68; for `COc1ccc(-c2ccc3ncc4c(c3c2)n(-c2cccnc2C)c(=O)n4C)cn1` [Example 2.12, 8-(6-Methoxy-pyridin-3-yl)-3-methyl-1-(2-methyl-pyridin-3-yl)-1,3-dihydro-imidazo[4,5-c]quinolin-2-one]: 7.10.
The same measure for `CNc1ccc(-c2ccc3ncc4c(c3c2)n(-c2cccnc2C)c(=O)n4C)cn1` [Example 2.13, 3-Methyl-8-(6-methylamino-pyridin-3-yl)-1-(2-methyl-pyridin-3-yl)-1,3-dihydro-imidazo[4,5-c]quinolin-2-one]: 7.43; for `Cc1ncccc1-n1c(=O)n(C)c2cnc3ccc(-c4cnc(N(C)C)nc4)cc3c21` [Example 2.15, 8-(2-Dimethylamino-pyrimidin-5-yl)-3-methyl-1-(2-methyl-pyridin-3-yl)-1,3-dihydro-imidazo[4,5-c]quinolin-2-one]: 6.99; for `Cc1ncccc1-n1c(=O)n(C)c2cnc3ccc(-c4cncc(NC(C)C)c4)cc3c21` [Example 2.24, 8-(5-Isopropylamino-pyridin-3-yl)-3-methyl-1-(2-methyl-pyridin-3-yl)-1,3-dihydro-imidazo[4,5-c]quinolin-2-one]: 7.54.
For the compound `Cc1ncccc1-n1c(=O)n(C)c2cnc3ccc(-c4cncc(N)c4)cc3c21` [Example 2.25, 8-(5-Amino-pyridin-3-yl)-3-methyl-1-(2-methyl-pyridin-3-yl)-1,3-dihydro-imidazo[4,5-c]quinolin-2-one], the pIC50 is 6.96.
Take `CNc1cncc(-c2ccc3ncc4c(c3c2)n(-c2cccnc2C)c(=O)n4C)c1` [Example 2.26, 3-Methyl-8-(5-methylamino-pyridin-3-yl)-1-(2-methyl-pyridin-3-yl)-1,3-dihydro-imidazo[4,5-c]quinolin-2-one]: the pIC50 was 7.17.
The same measure for `COc1cc(-c2ccc3ncc4c(c3c2)n(-c2cccnc2C)c(=O)n4C)cnc1C(OC)OC` [Example 2.27, 8-(6-Dimethoxymethyl-5-methoxy-pyridin-3-yl)-3-methyl-1-(2-methyl-pyridin-3-yl)-1,3-dihydro-imidazo[4,5-c]quinolin-2-one]: 6.08; for `CCOc1cc(-c2ccc3ncc4c(c3c2)n(-c2cccnc2C)c(=O)n4C)cnc1COC` [Example 2.28, 8-(5-Ethoxy-6-methoxymethyl-pyridin-3-yl)-3-methyl-1-(2-methyl-pyridin-3-yl)-1,3-dihydro-imidazo[4,5-c]quinolin-2-one]: 6.66; for `Cc1ncccc1-n1c(=O)n(C)c2cnc3ccc(-c4cncc(N5CCC5)c4)cc3c21` [Example 2.29, 8-(5-Azetidin-1-yl-pyridin-3-yl)-3-methyl-1-(2-methyl-pyridin-3-yl)-1,3-dihydro-imidazo[4,5-c]quinolin-2-one]: 6.91.
Take `CCNc1cc(-c2ccc3ncc4c(c3c2)n(-c2cccnc2C)c(=O)n4C)cnc1CO` [Example 2.31, 8-(5-Ethylamino-6-hydroxymethyl-pyridin-3-yl)-3-methyl-1-(2-methyl-pyridin-3-yl)-1,3-dihydro-imidazo[4,5-c]quinolin-2-one]: the pIC50 was 7.50.
The same measure for `CNc1cc(-c2ccc3ncc4c(c3c2)n(-c2cccnc2C)c(=O)n4C)cnc1C` [Example 2.32, 3-Methyl-8-(6-methyl-5-methylamino-pyridin-3-yl)-1-(2-methyl-pyridin-3-yl)-1,3-dihydro-imidazo[4,5-c]quinolin-2-one]: 7.47; for `Cc1cccnc1-n1c(=O)n(C)c2cnc3ccc(-c4ccc(C(N)=O)cc4)cc3c21` [Example 3.3, 4-[3-Methyl-1-(3-methyl-pyridin-2-yl)-2-oxo-2,3-dihydro-1H-imidazo[4,5-c]quinolin-8-yl]-benzamide]: 6.21; for `CNc1ncc(-c2ccc3ncc4c(c3c2)n(-c2ncccc2C)c(=O)n4C)cn1` [Example 3.4, 3-Methyl-8-(2-methylamino-pyrimidin-5-yl)-1-(3-methyl-pyridin-2-yl)-1,3-dihydro-imidazo[4,5-c]quinolin-2-one]: 6.13.
Next, `CNC(=O)c1ccc(-c2ccc3ncc4c(c3c2)n(-c2ncccc2C)c(=O)n4C)cc1` [Example 3.5, N-Methyl-4-[3-methyl-1-(3-methyl-pyridin-2-yl)-2-oxo-2,3-dihydro-1H-imidazo[4,5-c]quinolin-8-yl]-benzamide]: 6.34; `COc1ccc(-c2ccc3ncc4c(c3c2)n(-c2ncccc2C)c(=O)n4C)cc1OC` [Example 3.10, 8-(3,4-Dimethoxy-phenyl)-3-methyl-1-(3-methyl-pyridin-2-yl)-1,3-dihydro-imidazo[4,5-c]quinolin-2-one]: 6.32.
The same measure for `Cc1cccnc1-n1c(=O)n(C)c2cnc3ccc(-c4cnc(N)c(C(F)(F)F)c4)cc3c21` [Example 3.12, 8-(6-Amino-5-trifluoromethyl-pyridin-3-yl)-3-methyl-1-(3-methyl-pyridin-2-yl)-1,3-dihydro-imidazo[4,5-c]quinolin-2-one]: 7.12; for `COc1ccc(-c2ccc3ncc4c(c3c2)n(-c2cnccc2C)c(=O)n4C)cn1` [Example 4.3, 8-(6-Methoxy-pyridin-3-yl)-3-methyl-1-(4-methyl-pyridin-3-yl)-1,3-dihydro-imidazo[4,5-c]quinolin-2-one]: 6.17; for `Cn1c(=O)n(-c2cccnc2)c2c3cc(-c4ccc(CO)nc4)ccc3ncc21` [Example 5.1, 8-(6-Hydroxymethyl-pyridin-3-yl)-3-methyl-1-pyridin-3-yl-1,3-dihydro-imidazo[4,5-c]quinolin-2-one]: 6.44.
Regarding `CN(C)c1ccc(-c2ccc3ncc4c(c3c2)n(-c2cccnc2)c(=O)n4C)cn1` [Example 5.3, 8-(6-Dimethylamino-pyridin-3-yl)-3-methyl-1-pyridin-3-yl-1,3-dihydro-imidazo[4,5-c]quinolin-2-one], the pIC50 was 6.60.
In the case of `CCOc1ccc(-c2ccc3ncc4c(c3c2)n(-c2cccnc2F)c(=O)n4C)cn1` [Example 6.1, 8-(6-Ethoxy-pyridin-3-yl)-1-(2-fluoro-pyridin-3-yl)-3-methyl-1,3-dihydro-imidazo[4,5-c]quinolin-2-one], the pIC50 is 6.84.
The same measure for `Cn1c(=O)n(-c2cccnc2F)c2c3cc(-c4cnc(N)c(C(F)(F)F)c4)ccc3ncc21` [Example 6.2, 8-(6-Amino-5-trifluoromethyl-pyridin-3-yl)-1-(2-fluoro-pyridin-3-yl)-3-methyl-1,3-dihydro-imidazo[4,5-c]quinolin-2-one]: 7.94; for `Cc1nc(F)ccc1-n1c(=O)n(C)c2cnc3ccc(-c4cnc(N)c(C(F)(F)F)c4)cc3c21` [Example 7.1, 8-(6-Amino-5-trifluoromethyl-pyridin-3-yl)-1-(6-fluoro-2-methyl-pyridin-3-yl)-3-methyl-1,3-dihydro-imidazo[4,5-c]quinolin-2-one]: 7.61; for `Cc1nc(F)ccc1-n1c(=O)n(C)c2cnc3ccc(-c4cnc5c(ccn5C)c4)cc3c21` [Example 7.2, 1-(6-Fluoro-2-methyl-pyridin-3-yl)-3-methyl-8-(1-methyl-1H-pyrrolo[2,3-b]pyridin-5-yl)-1,3-dihydro-imidazo[4,5-c]quinolin-2-one]: 7.16.
The same measure for `CCOc1ccc(-c2ccc3ncc4c(c3c2)n(-c2ccc(F)nc2C)c(=O)n4C)cn1` [Example 7.3, 8-(6-Ethoxy-pyridin-3-yl)-1-(6-fluoro-2-methyl-pyridin-3-yl)-3-methyl-1,3-dihydro-imidazo[4,5-c]quinolin-2-one]: 7.07.
